In patent US11331364B2, “Use for JNK inhibitor molecules for treatment of various diseases” (Xigen Inflammation Ltd., priority 2014, dated 2022):
Square brackets hold non-standard residues; d marks the D form. Peptide text beside a SMILES is read from it.

Tests used:
[1] = test system: Adriamycin-induced nephropathy in rats; assay: Adriamycin-induced nephropathy; format: in vivo, rat; details: 2 mg/kg IV Day 0
Excerpt: Adriamycin treatment induces glomerular disease in rat and mice mimicking human focal segmental and glomerular sclerosis (FSGS). In this model, tubular and interstitial inflammatory lesions occur during the disease course, partly due to heavy proteinuria. In the absence of therapy, kidney disease progresses to terminal renal failure within eight weeks. Podocyte injury is one of the initial steps in the sequences leading to glomerulosclerosis. The aim of the study was to investigate whether a JNK inhibitor could prevent the development of renal lesions and the renal failure.
30 male Sprague-Dawley rats (Charles River) were used in this study (divided into 3 groups of ten rats). Nephropathy was induced by a single intravenous injection of Adriamycin […] on Day 0. The JNK inhibitor of SEQ ID NO: 172 (2 mg/kg; in NaCl 0.9%) or vehicle was administered intravenously into the tail vein on Day 0. The administration volume was 0.2 ml.
Retroorbital blood was collected at Days 7, 14, 28, 42 and 56 from 4 rats per group. Serum creatinine concentrations, blood urea and protidemia were measured using appropriate kits from Advia Chemistry 1650 (Bayer Healthcare AG, Leverkusen, Germany).
Two rats per group were sacrificed on Days 7, 14, 28, 42 and 56 after anesthesia. After animal sacrifice, both kidneys were collected. For histopathological examination fixed tissue specimens were dehydrated in graded alcohol solutions, cleared in toluene, and embedded in paraffin. Sections (4 µm) were stained with periodic acid-Schiff (PAS), and Masson's trichrome staining was performed to detect collagen deposition. Glomerular and tubulointerstitial sclerosis were quantified under microscope.

[2] = test system: experimental renal ischemia/reperfusion in rats; assay: Renal ischemia/reperfusion (clamping both renal pedicles 40 min), Wistar rats; format: in vivo, rat; details: 2 mg/kg IV one hour after clamping; 24 h following ischemia
Method: Renal ischemia will be induced by clamping both renal pedicles with atraumatic clamp (induction of necropathy). One unique dose of the JNK inhibitor of SEQ ID NO: 172 (2000 μg/kg) will be administered intravenously (IV) into the tail vein on Day 0, one hour after clamping period (after reperfusion) both renal pedicles with atraumatic clamp. The administration volume will be 2 ml/kg. Heparin (5000 IU/kg) will be administered intraperitoneally 1 hour before clamping.
Each day, the general behavior and the appearance of all animals is observed. […] For the evaluation of the renal function, serum creatinine ([…]) or urea concentrations (mmol/mL) are measured with the appropriate kits (Bayer Healthcare AG, Leverkusen, Germany). […]
Twenty-six (26) male Wistar rats (age 5-6 weeks) were used in this study (divided into 2 groups of 10 rats and 1 group of 6 rats). […] The health of the animals was monitored (moribund animals, abnormal important loss of weight, major intolerance of the substance, etc. . . . ). […]
For evaluation of renal function, blood was collected from the tail vein at 24 hours after reperfusion. Serum creatinine ([…]) and urea concentrations (mmol/mL) were measured using appropriate kits (Bayer Healthcare AG, Leverkusen, Germany). […]

hJNK2 = hJNK2 (Homo sapiens, UniProt P45984); assay: hJNK2 | IC50; details: read-out: hJNK2 | IC50
Summary of the method: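 JNK inhibitors tested as fusion proteins of a JNK-inhibitory (poly)peptide and a transporter sequence; IC50 reported in the nM range with SEM and number of experiments.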

hJNK2, sequence (P45984 whole entry, looked up, the tested form may be a part): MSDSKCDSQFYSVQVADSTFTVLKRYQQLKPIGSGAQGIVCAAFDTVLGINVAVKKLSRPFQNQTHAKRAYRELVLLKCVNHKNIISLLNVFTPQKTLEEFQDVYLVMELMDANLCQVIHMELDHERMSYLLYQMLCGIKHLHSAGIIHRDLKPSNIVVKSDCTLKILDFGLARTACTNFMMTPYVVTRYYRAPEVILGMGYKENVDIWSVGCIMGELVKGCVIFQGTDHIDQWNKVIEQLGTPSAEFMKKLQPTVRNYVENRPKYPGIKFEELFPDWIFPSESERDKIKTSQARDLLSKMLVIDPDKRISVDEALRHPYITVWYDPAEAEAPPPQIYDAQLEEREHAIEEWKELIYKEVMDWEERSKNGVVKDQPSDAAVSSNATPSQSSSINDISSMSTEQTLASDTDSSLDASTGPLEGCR

CC(C)C[C@H](NC(=O)[C@H](CC(N)=O)NC(=O)[C@H](CC(C)C)NC(=O)[C@@H](NC(=O)[C@@H](C)NC(=O)[C@@H]1CCCN1C(=O)[C@H](CCCNC(=N)N)NC(=O)[C@@H](CCCCN)NC(=O)[C@@H]1CCCN1C(=O)[C@H](CCCNC(=N)N)NC(=O)[C@@H](CCCNC(=N)N)NC(=O)[C@H](CCCNC(=N)N)NC(=O)[C@H](CCCNC(=N)N)NC(=O)[C@H](CCC(N)=O)NC(=O)[C@@H](CCCNC(=N)N)NC(=O)[C@H](CCCNC(=N)N)NC(=O)[C@H](CCCCN)NC(=O)[C@H](CCCCN)NC(=O)[C@H](N)CCCNC(=N)N)[C@@H](C)O)C(=O)N[C@H](Cc1ccccc1)C(N)=O [SEQ ID NO: 172, rKKRrQRRrRPkRPaTLNLf] (H-[dR]KKR[dR]QRR[dR]RP[dK]RP[dA]TLNL[dF]-NH2; N-terminus assumed)
kidney histopathology (PAS, Masson trichrome) ([1]; Day 8): relatively normal appearance
kidney histopathology (PAS, Masson trichrome) ([1]; Day 56): few focal and segmental glomerulosclerosis and tubulointerstitial fibrosis
urea serum level ([1]; throughout the course of the disease): below 10 mmol/l
serum creatinine relative to untreated ischemic rats [2]: lower serum creatinine
urea relative to untreated ischemic rats [2]: lower urea
IC50 (hJNK2): 0.0547 µM
